# Source: ChEMBL document CHEMBL2203120, “Contribution to investigation of antimicrobial activity of styrylquinolines” (Bioorg Med Chem, 2012)
# Tests used:
# [1] = test system: Staphylococcus aureus; assay: Antimicrobial activity against methicillin-resistant Staphylococcus aureus H 5996/08 after 48 hrs by broth microdilution method; assay type: functional; conditions: H 5996/08, 48 h
# [2] = test system: Candida tropicalis; assay: Antimicrobial activity against Candida tropicalis 156 after 24 hrs by broth microdilution test; assay type: functional; conditions: Candida tropicalis, 156, 24 h
# [3] = test system: Lichtheimia corymbifera; assay: Antimicrobial activity against Absidia corymbifera 272 after 48 hrs by broth microdilution test; assay type: functional; conditions: Lichtheimia corymbifera, 272, 48 h
# [4] = test system: Staphylococcus aureus; assay: Antimicrobial activity against Staphylococcus aureus CCM 4516/08 after 48 hrs by broth microdilution method; assay type: functional; conditions: CCM 4516/08, 48 h
# [5] = test system: Trichosporon beigelii; assay: Antimicrobial activity against Trichosporon beigelii 1188 after 48 hrs by broth microdilution test; assay type: functional; conditions: Trichosporon beigelii, 1188, 48 h
# [6] = test system: Candida albicans; assay: Antimicrobial activity against Candida albicans ATCC 44859 after 48 hrs by broth microdilution test; assay type: functional; conditions: ATCC 44859, 48 h
# [7] = test system: Pichia kudriavzevii; assay: Antimicrobial activity against Candida krusei ATCC 6258 after 48 hrs by broth microdilution test; assay type: functional; conditions: ATCC 6258, 48 h
# [8] = test system: Pichia kudriavzevii; assay: Antimicrobial activity against Candida krusei ATCC 6258 after 24 hrs by broth microdilution test; assay type: functional; conditions: ATCC 6258, 24 h
# [9] = test system: Staphylococcus epidermidis; assay: Antimicrobial activity against Staphylococcus epidermidis H 6966/08 after 48 hrs by broth microdilution method; assay type: functional; conditions: H 6966/08, 48 h
# [10] = test system: Staphylococcus aureus; assay: Antimicrobial activity against Staphylococcus aureus CCM 4516/08 after 24 hrs by broth microdilution method; assay type: functional; conditions: CCM 4516/08, 24 h
# [11] = test system: Candida tropicalis; assay: Antimicrobial activity against Candida tropicalis 156 after 48 hrs by broth microdilution test; assay type: functional; conditions: Candida tropicalis, 156, 48 h
# [12] = test system: Nakaseomyces glabratus; assay: Antimicrobial activity against Candida glabrata 20/I after 24 hrs by broth microdilution test; assay type: functional
# [13] = test system: Nakaseomyces glabratus; assay: Antimicrobial activity against Candida glabrata 20/I after 48 hrs by broth microdilution test; assay type: functional
# [14] = test system: Candida albicans; assay: Antimicrobial activity against Candida albicans ATCC 44859 after 24 hrs by broth microdilution test; assay type: functional; conditions: ATCC 44859, 24 h
# [15] = test system: Lichtheimia corymbifera; assay: Antimicrobial activity against Absidia corymbifera 272 after 24 hrs by broth microdilution test; assay type: functional; conditions: Lichtheimia corymbifera, 272, 24 h
# [16] = test system: Trichophyton mentagrophytes; assay: Antimicrobial activity against Trichophyton mentagrophytes 445 after 72 hrs by broth microdilution test; assay type: functional; conditions: Trichophyton mentagrophytes, 445, 72 h
# [17] = test system: Aspergillus fumigatus; assay: Antimicrobial activity against Aspergillus fumigatus 231 after 24 hrs by broth microdilution test; assay type: functional; conditions: Aspergillus fumigatus, 231, 24 h
# [18] = test system: Trichophyton mentagrophytes; assay: Antimicrobial activity against Trichophyton mentagrophytes 445 after 120 hrs by broth microdilution test; assay type: functional; conditions: Trichophyton mentagrophytes, 445, 120 h
# [19] = test system: Trichosporon beigelii; assay: Antimicrobial activity against Trichosporon beigelii 1188 after 24 hrs by broth microdilution test; assay type: functional; conditions: Trichosporon beigelii, 1188, 24 h
# [20] = test system: Staphylococcus aureus; assay: Antimicrobial activity against methicillin-resistant Staphylococcus aureus H 5996/08 after 24 hrs by broth microdilution method; assay type: functional; conditions: H 5996/08, 24 h
# [21] = Lipophilicity, log P of compound by RP-HPLC analysis; assay type: physicochemical
# [22] = test system: Staphylococcus epidermidis; assay: Antimicrobial activity against Staphylococcus epidermidis H 6966/08 after 24 hrs by broth microdilution method; assay type: functional; conditions: H 6966/08, 24 h
# [23] = test system: Aspergillus fumigatus; assay: Antimicrobial activity against Aspergillus fumigatus 231 after 48 hrs by broth microdilution test; assay type: functional; conditions: Aspergillus fumigatus, 231, 48 h
SMILES,MIC90 [1],MIC80 [2],MIC50 [3],MIC90 [4],MIC80 [5],MIC80 [6],MIC80 [7],MIC80 [8],MIC90 [9],MIC90 [10],MIC80 [11],MIC80 [12],MIC80 [13],MIC80 [14],MIC50 [15],MIC50 [16],MIC50 [17],MIC50 [18],MIC80 [19],MIC90 [20],further results
Oc1ccccc1/C=C/c1ccc2cccc(O)c2n1,125 µM,125 µM,> 500 µM,62.5 µM,62.5 µM,62.5 µM,62.5 µM,31.2 µM,125 µM,62.5 µM,500 µM,31.2 µM,31.2 µM,31.2 µM,62.5 µM,31.2 µM,500 µM,62.5 µM,31.2 µM,62.5 µM,logP [21]: 3.95; MIC90 [22]: 62.5 µM; MIC50 [23]: > 500 µM
Oc1cccc(/C=C/c2ccc3cccc(O)c3n2)c1,125 µM,> 125 µM,> 125 µM,125 µM,> 125 µM,> 125 µM,> 125 µM,> 125 µM,500 µM,125 µM,> 125 µM,> 125 µM,> 125 µM,> 125 µM,> 125 µM,> 125 µM,> 125 µM,> 125 µM,> 125 µM,125 µM,logP [21]: 3.95; MIC90 [22]: 250 µM; MIC50 [23]: > 125 µM
